Assay results taken from patent US11186618B2, “Dendritic-cell-targeted peptide, fusion peptide utilizing said peptide, and vaccine utilizing said fusion peptide” (The Research Foundation for Microbial Diseases of Osaka …, priority 2016, dated 2021).
“Also recorded” adds a separate entry of the source.

Assays:
dendritic cells = conditions: Non-Patent Document 2; cited from earlier work
Clec9a = conditions: Non-Patent Document 1; cited from earlier work
[1] = system: bone marrow-derived dendritic cells (FL-DCs); test: Binding of biotinylated peptide/streptavidin complex to dendritic cells, flow cytometry (Test Example 7); assay type: cell-based, mouse; conditions: 0.6 μg complex, PE-labeled streptavidin, FL-DCs and spleen-derived dendritic cells
Method: A biotinylated peptide/streptavidin complex was produced in the same manner as in Test Example 4 above using each of the peptide consisting of the amino acid sequence of FL4 identified in Test Example 1 above and its scramble peptide (amino acid sequence: YRSIVKA; SEQ ID NO: 38).
Each of various test cells and 0.6 μg of each of various complexes were mixed, and then the binding of each of various complexes to cells was evaluated by flow cytometric analysis. Cells used were 1×10^5 FL-DCs, 1×10^6 CD11c positive cells purified from the spleen using MACS (the spleen-derived dendritic cells) and 1×10^6 murine splenocytes.

[2] = system: CD4^+ T cells contained in splenocytes; test: Binding of phage clones to CD4+ T cells contained in splenocytes, flow cytometry (Test Example 6); assay type: cell-based, mouse; conditions: phage clone 1.6×10^10 pfu/mL, 1×10^5 splenocytes
Method: (§1) Specifically, 1×10^5 splenocytes collected from mice and 1.6×10^10 pfu/mL of each phage clone were mixed, and the biotinylated antibody to the phage was added. Further, streptavidin modified with a fluorescent dye was added, and the binding of the phage to splenocytes was evaluated by flow cytometric analysis.

[3] = system: dendritic cells contained in splenocytes; test: Binding of phage clones to dendritic cells contained in splenocytes, flow cytometry (Test Example 6); assay type: cell-based, mouse; conditions: phage clone 1.6×10^10 pfu/mL, 1×10^5 splenocytes
Method: as §1

[4] = system: mouse-derived dendritic cells (FL-DCs); test: Binding of phage clones to mouse-derived dendritic cells by flow cytometric analysis (Test Example 1); assay type: cell-based; conditions: phage clone displaying the peptide, 1.6×10^10 pfu/mL, 1×10^5 mouse-derived dendritic cells, flow cytometry with antibody against the phage
Method: Meanwhile, in the following test examples, unless otherwise indicated, as mouse-derived dendritic cells, dendritic cells (FL-DCs) that were obtained by culturing murine bone marrow cells in the presence of Flt3-L (final concentration 100 ng/ml) for 1 week to induce differentiation were used. In addition, in the following test examples, FL-DCs were analyzed in some cases separately for Plasmacytoid DCs (pDCs), CD11b positive dendritic cells (CD11b^+ DCs), and CD11b negative dendritic cells (CD11b^− DCs). Among the mouse-derived dendritic cells, pDCs is a group of CD11c positive and B220 positive cells; CD11b^+ DCs is a group of CD11c positive, B220 negative and CD11b positive cells among mouse-derived dendritic cells; CD11b^− DCs is a group of CD11c positive, B220 negative, and CD11b negative cells among mouse-derived dendritic cells.
Each of phages recovered by three panning operations was monocloned and amplified. 1×10^5 mouse-derived dendritic cells and 1.6×10^10 pfu/mL of each phage clone were mixed, and then the phage was assayed for the binding to dendritic cells by flow cytometric analysis using an antibody against the phage.
About 60 phage clones obtained were subjected to flow cytometric analysis as described above. As a result, 37 clones shown in Table 1 were identified as clones capable of binding to dendritic cells. […]

[5] = system: NeutrAvidin-specific antibody; test: NeutrAvidin-specific antibody titer in sera of mice given biotinylated peptide/NeutrAvidin complex, ELISA (Test Example 12); assay type: in vivo, mouse; conditions: 5 μg as NeutrAvidin, base of tail Day 0 and Day 10, serum Day 17, IgG
Text: A biotinylated peptide was synthesized by linking the N-terminus of each of FL4 identified in Test Example 1, a peptide Mut 1 (amino acid sequence: ASYKAIR (SEQ ID NO: 2)) derived from FL4 of which the 1st amino acid residue was substituted by an alanine residue, a peptide Mut 2 (amino acid sequence: VAYKAIR (SEQ ID NO: 3)) derived from FL4 of which the 2nd amino acid residue was substituted by an alanine residue, a peptide Mut 3 (amino acid sequence: VSAKAIR, SEQ ID NO: 43) derived from FL4 of which the 3rd amino acid residue was substituted by an alanine residue, and a peptide Mut 4 (amino acid sequence: VSYKAAR, SEQ ID NO: 44) derived from FL4 of which the […] amino acid residue was substituted by an alanine residue to biotin. Subsequently, a biotinylated peptide/NeutrAvidin complex was produced by mixing each of the obtained biotinylated peptides and NeutrAvidin.
50 μL of physiological saline containing 5 μg of the complex or NeutrAvidin in terms of NeutrAvidin amount was administered into the base of the tail of each 7-week old C57BL/6 mouse on Day 0 and Day 10, and blood was collected on Day 17. As a control, a test was also carried out in the case where only physiological saline was administered in the same manner Meanwhile, in these tests, five mice in each group were used.
Sera were obtained from the blood collected on Day 17 and NeutrAvidin-specific antibody titer (IgG) in the sera was measured by ELISA. In FIG. 18, “NA” refers to the case of administration of NeutrAvidin, and “NA-FL4” refers to the case of administration of the biotinylated FL4/NeutrAvidin complex. Other peptides are shown in the same display format. Further, in FIG. 18, “cont” refers to the case where physiological saline was administered.

Sequence of Clec9a (Q8BRU4 106-238 limits assumed): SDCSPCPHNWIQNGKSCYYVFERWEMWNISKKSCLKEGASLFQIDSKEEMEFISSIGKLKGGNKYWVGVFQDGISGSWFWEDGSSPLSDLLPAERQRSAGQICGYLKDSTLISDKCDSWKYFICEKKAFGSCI

NWYLPWLGTNDW (NW peptide)
binding ability to dendritic cells (dendritic cells): high binding ability to dendritic cells

WPRFHSSVFHTH (WH peptide)
binding to Clec9a expressed on dendritic cells (Clec9a): can selectively bind to Clec9a

VSYKAIR (Amino acid sequence of motif sequence) [FL4, also tested as biotinylated complex]
binding ability of biotinylated peptide/streptavidin complex to dendritic cells [1]: equivalent to that of the peptide consisting of the amino acid sequence of FL8 | binding of phage clone to CD4+ T cells contained in splenocytes [2]: also bound to CD4^+ T cells contained in splenocytes | binding of phage clone to dendritic cells contained in splenocytes [3]: bind to all dendritic cells contained in splenocytes; also recorded: equivalent to that of FL8 | binding of phage clone to dendritic cells [4]: bound to all dendritic cells; also recorded: binding to bone marrow-derived dendritic cells was confirmed | NeutrAvidin-specific antibody production [5]: excellent production ability
